Assay results: patent US20220202811A1, “TREATMENT FOR RETINOIC ACID RECEPTOR-RELATED ORPHAN RECEPTOR Ɣ (RORƔ)-DEPENDENT CANCERS” (The Regents of the University of California, priority 2019, published 2022)
“Also recorded” adds a separate entry of the source.

Experiments:
[1] = test system: PDX1424, PDX1444, and FG cells; test: compilation of PDX or FG xenografts, AZD-0284; type: in vivo, human
Excerpt: (§1) FIG. 45 is a compilation of all data from mice bearing PDX or FG cancer xenographs, including PDX1424, PDX1444, and FG.

[2] = test system: primary patient-derived PDX1356 organoids; test: PDX1356 organoid assay; type: cell-based, human
Method: PDX1535 organoids were derived from a patient of pancreatic cancer. Primary patient organoids were established by digesting patient-derived xenografts for 1 hour at 37° C. in RPMI containing 2.5% FBS, 5 mg/ml Collagenase II, and 1.25 mg/ml Dispase II, followed by passage through a […] mesh filter. Cells were plated at a density of 1.5×10^5 cells per 50 μl Matrigel. After domes were solidified, growth medium was added as follows: RPMI containing 50% Wnt3a conditioned media, 10% RSpondin1-conditioned media, 2.5% FBS, 50 ng/ml EGF, 5 mg/ml Insulin, 12.5 ng/ml hydrocortisone, and 14 μM Rho Kinase Inhibitor. After establishment, organoids were passaged and maintained. Briefly, organoids were isolated using Cell Recovery Solution (Corning 354253), then dissociated into single cell suspension with TrypLE Express (ThermoFisher 12604) supplemented with 25 μg/ml DNase I (Roche) and 14 μM Rho Kinase Inhibitor (Y-27632, Sigma). Cells were split 1:2 into 20 μl domes plated on pre-warmed 48-well plates. Domes were incubated at 37° C. for 5 min, then covered with human complete organoid feeding media without Wnt3a-conditioned media.
As shown in FIGS. 65-66, the anti-cancer effect of JTE-151 was also tested using the organoid assay on primary patient-derived PDX1356 pancreatic cancer cells. […] The volume of organoids was expressed as relative to control.

Fast Growing (FG) cells = test: Fast Growing (FG) cell xenografts in mice; type: in vivo, human
Excerpt: as §1

[3] = test system: primary patient-derived PDX202 pancreatic cancer cells; test: PDX202 organoid assay; type: cell-based, human; conditions: 3 μM JTE-151 alone
Method: (§2) Moreover, the anti-cancer effect of JTE-151 was determined in an organoid assay using pancreatic cancer cells derived from mice bearing primary patient-derived xenografts.

IL-17 = test: circulating IL-17 level in tumor-bearing KP^f/fC mice; type: in vivo, mouse; conditions: 120 mg/kg JTE-151 regimen, responding mice (FIGS. 59-60)
Method: Similarly, the anti-cancer effect of JTE-151 was tested on tumor-bearing KP^f/fC mice in vivo at a higher dose of 120 mg/kg (FIGS. 59-61 showing three individual experiments). For each experiment, one mouse was given vehicle treatment, and another mouse was given the JTE-151 regimen as specified in the figures. For example, in FIG. 59, the JTE-151 mouse received 120 mg/kg body weight of JTE-151 for 2 weeks and then 90 mg/kg JTE-151 for 1 week. In the first 1.5 weeks, JTE-151 was given once daily, and in the second 1.5 weeks, JTE-151 was given twice daily. […] In each of FIGS. 59-61, the horizontal axis of each graph represents the target (vehicle vs. JTE-151 mouse), and the vertical axis represents the specified measurement.

[4] = test system: primary patient-derived PDX204 pancreatic cancer cells; test: PDX204 organoid assay; type: cell-based, human
Method: as §2

[5] = test system: primary murine PanIN derived organoids; test: PanIN derived organoids; type: cell-based
Method: Moreover, RORγ inhibitor SR2211 can block the growth of benign pancreatic intraepithelial neoplasia (PanIN) lesions. The effect of SR2211 was tested on dissociated primary murine PanIN derived organoids.

[6] = test system: autochthonous tumor-bearing KP^f/fC mice; test: autochthonous KP^f/fC survival study
[7] = test system: organoids derived from adenosquamous tumors; test: adenosquamous tumor organoids (Msi2-Cre^ER/LSL-Myc); type: cell-based, mouse
Excerpt: (§3) A new Msi2-Cre^ER mouse model of aggressive pancreatic cancer was created, in which Cre is driven off of the Msi2 promoter and can be conditionally triggered by tamoxifen delivery. This Msi2-Cre^ER driver can be crossed into mice bearing distinct mutations such as Ras (leading to myeloproliferative neoplasia), p53, or Myc. When the Msi2-Cre^ER driver was crossed into an LSL-MyC^T58A model developed by Dr. Robert Wechsler-Reya at SBP/Rady, La Jolla, Calif. (Mollaoglu et al., 2017) (FIG. 79), it produced multiple cancer types including small cell lung cancer, choroid plexus tumors, and early stage kidney tumors.

[8] = test system: organoids derived from acinar tumors; test: acinar tumor organoids (Msi2-Cre^ER/LSL-Myc); type: cell-based, mouse
Excerpt: as §3

[9] = test system: LuCA KP lung cancer cells; test: lung cancer tumor sphere formation; type: cell-based; conditions: 0.3 μM, 0.6 μM, 1 μM, and 1.2 μM; relative to control
Excerpt: Then the number of formed tumor spheres were counted and quantified as relative to control.

human PDAC cells = test: human PDAC (FG) flank tumors in immunocompromised mice; type: in vivo; conditions: compared to vehicle-treatment
Method: Subcutaneous tumor dimensions were measured with calipers 1-2× weekly.

[10] = compilation of all data (FIG. 45)
[11] = especially at 90 mg/kg AZD-0284 (FIG. 44)
[12] = AZD-0284 in combination with gemcitabine

For `CC(=O)N1Cc2cc(S(C)(=O)=O)ccc2[C@@H]1C(=O)Nc1ccc(C(O)(C(F)(F)F)C(F)(F)F)cc1` [AZD-0284], the “EpCam+ tumor epithelial cells” value [1, 10] was “decrease”, the “EpCam+/CD133+ tumor stem cells” value [1, 10] was “decrease” and the cell number [1, 10] was “decrease”. For the same molecule, the “EpCam+ tumor epithelial cells” value [1, 11] was “reduced”, the “EpCam+/CD133+ tumor stem cells” value [1, 11] was “reduced” and the organoid volume ([2]; 3 μM AZD-0284 + 0.05 nM gemcitabine) was “significant reduction; also recorded: effectively inhibited”. For the same molecule, the organoid volume ([2]; 3 μM AZD-0284 alone) was “significant reduction; also recorded: effectively inhibited”, the organoid volume ([2]; 6 μM AZD-0284 + 0.05 nM gemcitabine) was “significant reduction; also recorded: effectively inhibited” and the organoid volume ([2]; 6 μM AZD-0284 alone) was “significant reduction; also recorded: effectively inhibited”. For the same molecule, the “EpCam+/CD133+ tumor stem cells” value (Fast Growing (FG) cells; 90 mg/kg AZD-0284) was “decrease”, the total cell number (Fast Growing (FG) cells; 90 mg/kg AZD-0284) was “decrease” and the “EpCam+/CD133+ tumor stem cells” value (Fast Growing (FG) cells; [12]) was “decrease”. The total cell number (Fast Growing (FG) cells; [12]) was “decrease”.
`Cc1ccc(NC(=O)C[C@H](CCC(=O)O)c2noc([C@H]3C[C@@H](CC(C)(C)C)C3)c2C2CC2)c(Cl)c1` [JTE-151, (4S)-6-[(2-chloro-4-methylphenyl)amino]-4-{4-cyclopropyl-5-[cis-3-(2,2-dimethylpropyl)cyclobutyl]isoxazol-3-yl}-6-oxohexanoic acid] was tested, and the organoid growth [3] was “inhibited”, the “organoid growth in volume” value ([2]; 0.3 μM JTE-151 + 0.05 nM gemcitabine) was “visibly decreased; also recorded: inhibited” and the “organoid growth in volume” value ([2]; 0.3 μM JTE-151 alone) was “visibly decreased; also recorded: inhibited”. For the same molecule, the organoid volume ([2]; 3 μM JTE-151 + 0.05 nM gemcitabine) was “visibly reduced; also recorded: inhibited”, the organoid volume ([2]; 3 μM JTE-151 alone) was “visibly reduced; also recorded: inhibited” and the “circulating IL-17 levels” value (IL-17) was “decrease”. For the same molecule, the organoid growth ([4]; 3 μM JTE-151 alone) was “inhibited” and the organoid growth ([4]; 3 μM JTE-151 in combination with 0.05 nM gemcitabine) was “inhibited”.
In the case of `OC(c1ccc(-c2ccc(CN3CCN(Cc4ccncc4)CC3)cc2)c(F)c1)(C(F)(F)F)C(F)(F)F` [SR2211], the organoid number [5] is reported as “reduced”, the organoid volume [5] is reported as “reduced” and the mice alive ([6]; 25 days after the initiation of treatment) is reported as 75%. It also gave a mice alive ([6]; 45 days after treatment initiation) of 50%, a Hazard ratio ([6]; SR2211 vs vehicle) of 0.16 and a median survival ([6]; treated daily from 8 weeks of age until moribund) of 38.5 days. For the same molecule, the “decreased risk of death” value ([6]; vs vehicle) was 6 fold, the sensitivity of organoids [7] was “sensitive” and the organoid growth ([8]; 3 μM or 6 μM SR2211) was “significantly reduced”. For the same molecule, the sensitivity of organoids ([8]; acinar tumors) was “sensitive”, the tumor sphere formation [9] was “significantly reduced” and the “reduction in tumor growth” value (human PDAC cells) was about 6 fold.
